Measured values taken from patent publication US20250230193A1, “CYCLIC COMPOUND HAVING SELECTIVE KRAS INHIBITORY EFFECT ON HRAS AND NRAS” (CHUGAI SEIYAKU KABUSHIKI KAISHA, priority 2022, published 2025).

How the values were obtained:
[1] = target: GDP-bound NRAS wild-type protein (Homo sapiens, UniProt P01111); experiment: Binding to NRAS by surface plasmon resonance (SPR), Single Cycle Kinetics; settings: for NRAS/KRAS (ratio of KD value with respect to NRAS to KD value with respect to KRAS) / NRAS/KRAS (ratio of KD value for NRAS to KD value for KRAS): GDP-bound NRAS wild-type vs GDP-bound KRAS wild-type
[2] = target: GDP-bound HRAS wild-type protein (Homo sapiens, UniProt P01112); experiment: Binding to HRAS by surface plasmon resonance (SPR), Single Cycle Kinetics; settings: for HRAS/KRAS (ratio of KD value with respect to HRAS to KD value with respect to KRAS) / HRAS/KRAS (ratio of KD value for HRAS to KD value for KRAS): GDP-bound HRAS wild-type vs GDP-bound KRAS wild-type
[3] = SPR, GDP-bound wild-type proteins

Sequence of GDP-bound HRAS wild-type protein (P01112 whole entry): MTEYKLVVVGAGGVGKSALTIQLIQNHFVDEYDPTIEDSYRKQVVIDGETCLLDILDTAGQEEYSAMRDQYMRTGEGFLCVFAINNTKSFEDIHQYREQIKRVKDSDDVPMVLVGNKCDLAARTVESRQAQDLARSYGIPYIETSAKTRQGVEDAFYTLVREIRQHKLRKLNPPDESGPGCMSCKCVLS
Sequence of GDP-bound NRAS wild-type protein (P01111 whole entry): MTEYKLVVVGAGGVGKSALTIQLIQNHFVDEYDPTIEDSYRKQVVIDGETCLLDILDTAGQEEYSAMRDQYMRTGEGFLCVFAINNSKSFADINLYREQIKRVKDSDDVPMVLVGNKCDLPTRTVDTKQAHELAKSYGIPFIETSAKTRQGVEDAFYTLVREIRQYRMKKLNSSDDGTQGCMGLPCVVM

CCCO[C@H](C)[C@@H]1NC(=O)[C@H](CC(C)C)N(C)C(=O)C[C@@H](C(=O)N(C)CC)N(C)C(=O)[C@H](C2CCCC2)N(C)C(=O)C2(CC(C)(C)C2)NC(=O)[C@@H]2C[C@H](C)CN2C(=O)[C@H](CCc2ccc(C(F)(F)F)c(OC)c2)NC(=O)CN(C)C(=O)[C@H](Cc2ccc(C)cc2)N2CC/C=C\C[C@@H](C2=O)N(C)C(=O)CN(C)C1=O [PP2416]
NRAS/KRAS (ratio of KD value with respect to NRAS to KD value with respect to KRAS) ([1]; SPR): A (a compound having 10 or more and less than 20 is denoted as A)
HRAS/KRAS (ratio of KD value with respect to HRAS to KD value with respect to KRAS) ([2]; SPR): B (a compound having 3 or more and less than 10 is denoted as B)

CCO[C@@H]1C[C@H]2C(=O)NC3(CCC3)C(=O)N(C)[C@@H](C3CCCC3)C(=O)N(C)[C@H](C(=O)N(C)C)CC(=O)N(C)[C@@H](CC)C(=O)N[C@@H]([C@@H](C)CC)C(=O)N(C)CC(=O)N(C)[C@H]3CCCCCN(C3=O)[C@@H](Cc3ccc(C(F)(F)F)cc3)C(=O)N(C)CC(=O)N[C@@H](CCc3cc(F)c(C(F)(F)F)c(F)c3)C(=O)N2C1 [PP0663]
NRAS/KRAS (ratio of KD value with respect to GDP-bound NRAS wild-type protein to KD value with respect to KRAS) ([1]; SPR): B (a compound having 3 or more and less than 10 is denoted as B)
HRAS/KRAS (ratio of KD value with respect to GDP-bound HRAS wild-type protein to KD value with respect to KRAS) ([2]; SPR): B (a compound having 3 or more and less than 10 is denoted as B)

CC[C@H](C)[C@@H]1NC(=O)[C@H](CC(F)F)N(C)C(=O)C[C@@H](C(=O)N(C)C)N(C)C(=O)[C@H](C2CCCC2)N(C)C(=O)C2(CC(C)(C)C2)NC(=O)[C@@H]2CC(F)(F)CN2C(=O)[C@H](CCc2cc(F)c(C(F)(F)F)c(F)c2)NC(=O)CN(C)C(=O)[C@H](Cc2ccc(C(F)(F)F)cc2)N2CC/C=C\C[C@@H](C2=O)N(C)C(=O)CN(C)C1=O [PP1709]
NRAS/KRAS (ratio of KD value for NRAS to KD value for KRAS) ([1]; KD ratio, SPR): A (a compound having 10 or more and less than 20 is denoted as A)
HRAS/KRAS (ratio of KD value for HRAS to KD value for KRAS) ([2]; KD ratio, SPR): A (a compound having 10 or more and less than 20 is denoted as A)

CC[C@H](C)[C@@H]1NC(=O)[C@H](CC)N(C)C(=O)C[C@@H](C(=O)N(C)C)N(C)C(=O)[C@H](C2CCCC2)N(C)C(=O)C2(CCC2)N(C)C(=O)[C@@H]2C[C@@H](C)CN2C(=O)[C@H](CCc2cc(F)c(C(F)(F)F)c(F)c2)NC(=O)CN(C)C(=O)[C@H](Cc2ccc(C)cc2)N2CC/C=C\C[C@@H](C2=O)N(C)C(=O)[C@@H]2CCCN2C1=O [PP1789]
NRAS/KRAS (ratio of KD value for NRAS to KD value for KRAS) ([1]; KD ratio, SPR): A (a compound having 10 or more and less than 20 is denoted as A)
HRAS/KRAS (ratio of KD value for HRAS to KD value for KRAS) ([2]; KD ratio, SPR): A (a compound having 10 or more and less than 20 is denoted as A)

CCCOC[C@H]1C(=O)N[C@@H]([C@@H](C)CC)C(=O)N(C)CC(=O)N(C)[C@H]2C/C=C\CCN(C2=O)[C@@H](Cc2ccc(C(F)(F)F)cc2)C(=O)N(C)CC(=O)N[C@@H](CCc2cc(F)c(Cl)c(F)c2)C(=O)N2C[C@H](OCC)C[C@H]2C(=O)NC2(CC(C)(C)C2)C(=O)N(C)[C@@H](C2CCCC2)C(=O)N(C)[C@H](C(=O)N(C)C)CC(=O)N1C [PP1764]
NRAS/KRAS (ratio of KD value for NRAS to KD value for KRAS) ([1]; KD ratio, SPR): AA (a compound having 20 or more is denoted as AA)
HRAS/KRAS (ratio of KD value for HRAS to KD value for KRAS) ([2]; KD ratio, SPR): A (a compound having 10 or more and less than 20 is denoted as A)

CC[C@H](C)[C@@H]1NC(=O)[C@H](CC)N(C)C(=O)C[C@@H](C(=O)N(C)C)N(C)C(=O)[C@H](C2CCCC2)N(C)C(=O)C2(CCC2)NC(=O)[C@H](COC)N(C)C(=O)[C@H](CCc2cc(F)c(C(F)(F)F)c(F)c2)NC(=O)CN(C)C(=O)[C@H](Cc2ccc(C(F)(F)F)cc2)N2CC/C=C\C[C@@H](C2=O)N(C)C(=O)CN(C)C1=O [PP1145]
NRAS/KRAS (ratio of KD value with respect to NRAS to KD value with respect to KRAS) ([1]; KD ratio, SPR): A (a compound having 10 or more and less than 20 is denoted as A)
HRAS/KRAS (ratio of KD value with respect to HRAS to KD value with respect to KRAS) ([2]; KD ratio, SPR): B (a compound having 3 or more and less than 10 is denoted as B)

CCC[C@H]1C(=O)N[C@@H]([C@@H](C)CC)C(=O)N(C2CC2)CC(=O)N(C)[C@H]2C/C=C\CCN(C2=O)[C@@H](Cc2ccc(C)cc2)C(=O)N(C)CC(=O)N[C@@H](CCc2ccc(C(F)(F)F)c(OC)c2)C(=O)N2C[C@H](OCC)C[C@H]2C(=O)NC2(CC(C)(C)C2)C(=O)N(C)[C@@H](C2CCCC2)C(=O)N(C)[C@H](C(=O)N(C)C)CC(=O)N1C [PP2097]
NRAS/KRAS (ratio of KD value with respect to NRAS to KD value with respect to KRAS) ([1]; SPR): A (a compound having 10 or more and less than 20 is denoted as A)
HRAS/KRAS (ratio of KD value with respect to HRAS to KD value with respect to KRAS) ([2]; SPR): A (a compound having 10 or more and less than 20 is denoted as A)

CCC[C@H]1C(=O)N[C@@H]([C@@H](C)CC)C(=O)N(C)CC(=O)N(C)[C@H]2C/C=C\CCN(C2=O)[C@@H](Cc2ccc(C)cc2)C(=O)N(C)CC(=O)N[C@@H](CCc2ccc(C(F)(F)F)c(OC)c2)C(=O)N2C[C@H](OCC)C[C@H]2C(=O)NC2(CC(C)(C)C2)C(=O)N(C)[C@@H](CC(C)(C)C)C(=O)N(C)[C@H](C(=O)N(C)C)CC(=O)N1C [PP2710]
NRAS/KRAS (ratio of KD value with respect to GDP-bound NRAS wild-type protein to KD value with respect to KRAS) ([1]; class symbols): B (a compound having 3 or more and less than 10 is denoted as B)
HRAS/KRAS (ratio of KD value with respect to GDP-bound HRAS wild-type protein to KD value with respect to KRAS) ([2]; class symbols): B (a compound having 3 or more and less than 10 is denoted as B)

CCCN(C)C(=O)[C@@H]1CC(=O)N(C)[C@@H](COCC)C(=O)N[C@@H]([C@@H](C)CC)C(=O)N(C)CC(=O)N(C)[C@H]2C/C=C\CCN(C2=O)[C@@H](Cc2ccc(C(F)(F)F)cc2)C(=O)N(C)CC(=O)N[C@@H](CCc2ccc(C(F)(F)F)c(OC)c2)C(=O)N2C[C@@H](C)C[C@H]2C(=O)NC2(CCC2)C(=O)N(C)[C@@H](C2CCCC2)C(=O)N1C [PP2025]
NRAS/KRAS (ratio of KD value for NRAS to KD value for KRAS) ([1]; KD ratio, SPR): A (a compound having 10 or more and less than 20 is denoted as A)
HRAS/KRAS (ratio of KD value for HRAS to KD value for KRAS) ([2]; KD ratio, SPR): B (a compound having 3 or more and less than 10 is denoted as B)

CCC[C@H]1C(=O)N[C@@H]([C@@H](C)CC)C(=O)N(C2CC2)CC(=O)N(C)[C@H]2C/C=C\CCN(C2=O)[C@@H](Cc2ccc(C)cc2)C(=O)N(C)CC(=O)N[C@@H](CCc2ccc(C(F)(F)F)c(CC)c2)C(=O)N2C[C@H](OCC)C[C@H]2C(=O)NC2(CC(C)(C)C2)C(=O)N(C)[C@@H](C2CCCC2)C(=O)N(C)[C@H](C(=O)N(C)C)CC(=O)N1C [PP2870]
NRAS/KRAS (ratio of KD value with respect to GDP-bound NRAS wild-type protein to KD value with respect to KRAS) ([1]; class symbols): A (a compound having 10 or more and less than 20 is denoted as A)
HRAS/KRAS (ratio of KD value with respect to GDP-bound HRAS wild-type protein to KD value with respect to KRAS) ([2]; class symbols): A (a compound having 10 or more and less than 20 is denoted as A)

CC[C@H](C)[C@@H]1NC(=O)[C@@H]2CCCCCc3ccc(cc3)C[C@@H](C(=O)N(C)CC(=O)N[C@@H](CCc3ccc(C(F)(F)F)c(OC)c3)C(=O)N3C[C@H](OC(C)C)C[C@H]3C(=O)NC3(CC(C)(C)C3)C(=O)N(C)[C@@H](C3CCCC3)C(=O)N(C)[C@H](C(=O)N(C)C)CC(=O)N2C)N2CC/C=C\C[C@@H](C2=O)N(C)C(=O)CN(C)C1=O [PP3072]
NRAS/KRAS (ratio of KD value with respect to GDP-bound NRAS wild-type protein to KD value with respect to KRAS) [1, 3]: A (a compound having 10 or more and less than 20 is denoted as A)
HRAS/KRAS (ratio of KD value with respect to GDP-bound HRAS wild-type protein to KD value with respect to KRAS) [2, 3]: B (a compound having 3 or more and less than 10 is denoted as B)

CC[C@H](C)[C@@H]1NC(=O)[C@H](COC)N(C)C(=O)C[C@@H](C(=O)N2CCOCC2)N(C)C(=O)[C@H](C2CCCC2)N(C)C(=O)C2(CCC2)NC(=O)[C@@H]2CCCN2C(=O)[C@H](CCc2cc(F)c(C(F)(F)F)c(F)c2)NC(=O)CN(C)C(=O)[C@H](Cc2ccc(C(F)(F)F)cc2)N2CCCCC[C@@H](C2=O)N(C)C(=O)CNC1=O [PP0860]
NRAS/KRAS (ratio of KD value with respect to NRAS to KD value with respect to KRAS) ([1]; KD ratio, SPR): B (a compound having 3 or more and less than 10 is denoted as B)
HRAS/KRAS (ratio of KD value with respect to HRAS to KD value with respect to KRAS) ([2]; KD ratio, SPR): B (a compound having 3 or more and less than 10 is denoted as B)

CCO[C@@H]1C[C@H]2C(=O)NC3(CCC3)C(=O)N(C)[C@@H](C3CCCC3)C(=O)N(C)[C@H](C(=O)N(C)CCOC)CC(=O)N(C)[C@@H](CC(C)C)C(=O)N[C@@H]([C@@H](C)CC)C(=O)N(C)CC(=O)N(C)[C@H]3C/C=C\CCN(C3=O)[C@@H](Cc3ccc(C(F)(F)F)cc3)C(=O)N(C)CC(=O)N[C@@H](CCc3ccc(Cl)c(Cl)c3)C(=O)N2C1 [PP1326]
NRAS/KRAS (ratio of KD value for GDP-bound NRAS wild-type protein to KD value for KRAS) ([1]; SPR, KD ratio class): AA (a compound having 20 or more is denoted as AA)
HRAS/KRAS (ratio of KD value for GDP-bound HRAS wild-type protein to KD value for KRAS) ([2]; SPR, KD ratio class): A (a compound having 10 or more and less than 20 is denoted as A)

CCO[C@@H]1C[C@H]2C(=O)NC3(CCC3)C(=O)N(C)[C@@H](C(CC)CC)C(=O)N(C)[C@H](C3CCC3)CC(=O)N(C)[C@@H](CC3CC3)C(=O)N[C@@H]([C@@H](C)CC)C(=O)N(C)CC(=O)N(C)[C@H]3C/C=C\CCN(C3=O)[C@@H](Cc3ccc(C(F)(F)F)cc3)C(=O)N(C)CC(=O)N[C@@H](CCc3cc(F)c(C(F)(F)F)c(F)c3)C(=O)N2C1 [PP1636]
NRAS/KRAS (ratio of KD value for NRAS to KD value for KRAS) ([1]; KD ratio, SPR): A (a compound having 10 or more and less than 20 is denoted as A)
HRAS/KRAS (ratio of KD value for HRAS to KD value for KRAS) ([2]; KD ratio, SPR): A (a compound having 10 or more and less than 20 is denoted as A)

CCCCO[C@H]1CCN2C(=O)[C@H](CCc3cc(F)c(C(F)(F)F)c(F)c3)NC(=O)CN(C)C(=O)[C@H](Cc3ccc(C(F)(F)F)cc3)N3CCCCC[C@@H](C3=O)N(C)C(=O)CN(C)C(=O)[C@H]([C@@H](C)CC)NC(=O)[C@H](CC(C)C)N(C)C(=O)C[C@@H](C(=O)N3CCOCC3)N(C)C(=O)[C@H](C3CCCC3)N(C)C(=O)C3(CCC3)NC(=O)[C@H]12 [PP1009]
NRAS/KRAS (ratio of KD value with respect to NRAS to KD value with respect to KRAS) ([1]; KD ratio, SPR): B (a compound having 3 or more and less than 10 is denoted as B)
HRAS/KRAS (ratio of KD value with respect to HRAS to KD value with respect to KRAS) ([2]; KD ratio, SPR): B (a compound having 3 or more and less than 10 is denoted as B)
